Measured values as given in publication PMC4226669, “Anti-cancer potency of tasquinimod is enhanced via albumin-binding facilitating increased uptake in the tumor microenvironment” (Oncotarget, 2014).

Key:
[1] = system: CWR-22Rv1, LAPC-4, LNCaP and HUVEC cells; test: Nuclear drug uptake in 3 prostate cancer lines and HUVEC; type: cell-based, human
From the text: (§1) To determine the total nuclear concentration of drug (Nt), a modified protocol was needed to allow the rapid lyses of cells and rapid isolation of cell nuclei by differential centrifugation. This could not be accomplished using the usual method of detergent lyses because detergents extract bound drug due to its lipophilicity. Therefore, a detergent free protocol using nitrogen cavitation was developed to rapidly lyse cells and allow the rapid isolation of nuclei via differential centrifugation. Using this cavitation protocol, it was documented that within 1 hour, total nuclear drug concentration (Nt) equals that of the protein-free drug concentration in the media (i.e., 0.2 μM), and that after 4 hours equals PMt (i.e., see Figure 3B, right panel for representative results for the CWR-22Rv1 cells). From 8 hours onward, Nt is more than 10 fold higher than the free and 2 fold higher than the total drug concentration in the media, Figure 3B, right panel. For example at 24 hours post exposure to 1 μM tasquinimod in 10% FBS containing media, the Nt is 2.4 ± 0.3 μM, Figure 3B, right panel. At this 24 hours period, total radioactive drug in isolated nuclei from all 3 prostate cancer lines, as well as HUVEC cells (i.e., nuclear concentration in these 4 lines ranged from 2.2-3.1 μM) was extracted with acetonitrile and the extracts analyzed by HPLC. […] To resolve this, nuclear uptake was determined 24 hours post exposure to 1 μM tasquinimod in serum free media. These studies again documented that nuclear tasquinimod concentration in these 4 cell lines ranged from 2.5-3.5 μM documenting that binding to albumin is not required for cell uptake.
To specifically determine the concentration of tasquinimod within the cell nucleus, 10^7 cells were incubated in 1ml of tissue culture media containing 10% fetal bovine serum (FBS) plus 1μM ^14C-labeled tasquinimod for varying times before the cells were centrifuged rapidly (i.e., 1000xG for 2 min) to remove the drug containing media. The cells were rapidly resuspended in phosphate buffered saline and exposed to pressurized (i.e., 500lbs/sq in) N2 in a nitrogen cavitation devise (i.e., Parr bomb, Parr Instrument Company, Moline, Il) for 5 min before the plasma membranes were lysed by the rapid release of the pressure. This detergent free procedure lyses >98% of the cells without disrupting either mitochondria or lysosomes. […] The radioactivity of this pellet was counted and used to calculate the total amount of tasquinimod associated with 10^7 cell nuclei. To determine the nuclear drug concentration, this total nuclear drug amount was […] the total volume of 10^7 cell nuclei determined from the average diameter of the nuclei determined electronically using Cellometer AutoT4.

[2] = design: method as in PMID 16955399; conditions: adult male mice, 0.1-30 mg/kg via gavage or drinking water; cited from earlier work
[3] = system: human umbilical vein endothelial cells (HUVECs); test: 3D in vitro endothelial sprouting and tube formation assay; type: cell-based
From the text: A three-dimensional (3D) in vitro endothelial sprouting and tube formation assay was utilized to define the anti-angiogenic potency of tasquinimod vs. these metabolites. In this 3D assay, human umbilical endothelial cells (i.e., HUVECs) are initially grown on microcarrier beads and the cell coated beads embedded in fibrin gels with media conditioned by normal human lung fibroblasts. Under these 3D-conditions, endothelial cells “sprout” producing 3D neovessel tubes with patent lumen within one week, Figure 4A - left panel. When tasquinimod is added at the initiation to these 3D-cultures, sprouting of the endothelial cells is inhibited, Figure 4B-right panel, with the potency for such inhibition, expressed as an IC50 value (i.e., the concentration of drug which inhibits by 50% the endothelial sprouting) of 0.5 μM, Figure 4C. […] Using this 3D-HUVEC assay, the potency (i.e., expressed as IC50) of tasquinimod metabolites to inhibit endothelial sprouting was compared to tasquinimod. […] To further confirm that tasquinimod itself and not the carboxamide-N-demethylated metabolite is the active drug, the response to ketoconazole alone and in combination with tasquinimod was tested in the 3D-endothelial sprouting assay.
The 3-dimensional (3D) in vitro angiogenic sprouting and tube formation assay was used as described previously. This 3D-endothelial sprouting assay was conducted using a minimum of 5 replicate wells per drug dose per experiment, repeated 3 independent times using human umbilical vein endothelial cells (HUVECs; Lonza Walkersville, Inc.) with modification that 20 μL of 10X concentrated Dulbecco's Modified Eagle's Media/10%FCS media conditioned by confluent human primary lung fibroblasts (Lonza) diluted to 200 μL of growth factor supplemented EGM-2 media (Lonza) was used instead of fibroblast co-culture.

[4] = system: CWR-22Rv1 human prostate cancer cells; test: Plasma membrane associated vs nuclear drug uptake in CWR-22Rv1 cells; type: cell-based
Experimental: Based upon these preliminary validation, cells were incubated in 10% fetal bovine serum (FBS) supplemented media containing 1μM ^14C-labeled tasquinimod for <10 minutes. When these cells are rapidly (< 20sec) separated from the media by vacuum filtration onto glass microfiber filter and the filters rapidly (< 20sec) washed, radiolabeled drug is retained by the washed cells and this radioactivity can be used to calculate the total cell associated concentration of drug (CAt). If instead after the washes, media are added above the filters and allowed to remain for a 15 minutes “wash out” period before being vacuumed off and subsequently rapidly (< 20sec) washed with drug free media, […]. […] Thus, total plasma membrane associated drug concentration (PMt) is determined by subtracting the ICt from the CAt value.
as §1
A rapid filtration method was developed and validated to measures the kinetics of tasquinimod cell uptake on a series of human cell lines. To do this, exponentially growing cells in a tissue culture flask are trypsinized, and the number of single cells counted and their average diameter determined electronically using Cellometer AutoT4 (Nexcelom, Lawrence, MA). Then multiple replicates (N=3-6) of 10^7 cells per time point were incubated from 5 minutes to 48 hours. at 37°C in 1ml of tissue culture media containing 10% fetal bovine serum (FBS) plus 1μM ^14C-labeled tasquinimod. The cells in each replicate incubation were then rapidly separated from the tasquinimod containing media by vacuum filtration onto a 24mm Whatman GF/C glass microfiber filter (GE Healthcare Sciences, Piscataway, NJ) using a Millipore 1225 sampling manifold (Millipore, Billerica MA). The filters are then rapidly washed and filtered (<20 seconds per wash) 3 times with 2mls of drug free FBS containing tissue culture media. Half of the replicate filters are then dried overnight and counted for determination of the total cell associated amount of drug (i.e., plasma membrane associated plus intracellular uptake). To the remaining half of the replicate filters, 2mls of drug free FBS containing tissue culture media is added above the filters and allowed to remain there for 15 minutes before being filtered off. […]

In the case of `COc1cccc2c1c(O)c(C(=O)N(C)c1ccc(C(F)(F)F)cc1)c(=O)n2C` [Tasquinimod], the “nuclear concentration, range over 4 lines” value ([1]; 24 hours, 1 μM in 10% FBS media) is reported as 2.2 to 3.1 µM, the “nuclear tasquinimod concentration, range over 4 cell lines” value ([1]; 24 hours, 1 μM in serum free media) is reported as 2.5 to 3.5 µM and the “drug present within nuclei that is non-metabolized tasquinimod” value ([1]; 24 hours, each of 4 cell lines, HPLC) is reported as over 95%. For the same molecule, the intracellular drug concentration ([1]; exposure of cancer and endothelial cells to 0.5-1μM) was 2 to 3 µM, the “bioavailability and oral absorption” value [2] was “excellent” and the “sprouting of HUVEC cells in 3-D culture” value ([3]; 1μM, 5 days co-treatment with conditioned media from fibroblasts) was “Lack of sprouting”. For the same molecule, the IC50 ([3]; Homo sapiens, HUVEC, 3D-HUVEC sprouting assay, read-out: IC50 (concentration of drug which inhibits by 50% the endothelial sprouting)) was about 500 nM, the “time to steady state PMt” value ([4]; 1 μM in 10% FBS media) was 5 to 10 min and the “total plasma membrane associated drug concentration (PMt), steady state” value ([4]; 1 μM in 10% FBS media, maintained to 48 hours) was ~ 1 μM. The “total nuclear drug concentration (Nt)” value ([4]; 24 hours post exposure to 1 μM in 10% FBS containing media) was 2.4 ± 0.3 µM, the “Nt relative to free drug concentration in the media” value ([4]; from 8 hours onward) was “more than 10 fold” and the “Nt relative to total drug concentration in the media” value ([4]; from 8 hours onward) was over 2 fold. The “total nuclear drug concentration (Nt)” value ([4]; within 1 hour, 1 μM in 10% FBS media) was 0.2 µM.
